Test results: publication PMC6066355, “Probing the binding site of novel selective positive allosteric modulators at the M1 muscarinic acetylcholine receptor” (Biochemical Pharmacology, 2018)
Changes are numbered by the printed parent chain.

Tests used:
Format in all cases: cell-based
W400^7.35A M1 mAChR = biological target: T1, W400^7.35A M1 mAChR (Homo sapiens, UniProt P11229, W400A); assay: IP-One (IP1) accumulation assay, FlpIn CHO cells
T1 construct: expressed in transfected cells
T1 sequence (P11229 1-460 W400A): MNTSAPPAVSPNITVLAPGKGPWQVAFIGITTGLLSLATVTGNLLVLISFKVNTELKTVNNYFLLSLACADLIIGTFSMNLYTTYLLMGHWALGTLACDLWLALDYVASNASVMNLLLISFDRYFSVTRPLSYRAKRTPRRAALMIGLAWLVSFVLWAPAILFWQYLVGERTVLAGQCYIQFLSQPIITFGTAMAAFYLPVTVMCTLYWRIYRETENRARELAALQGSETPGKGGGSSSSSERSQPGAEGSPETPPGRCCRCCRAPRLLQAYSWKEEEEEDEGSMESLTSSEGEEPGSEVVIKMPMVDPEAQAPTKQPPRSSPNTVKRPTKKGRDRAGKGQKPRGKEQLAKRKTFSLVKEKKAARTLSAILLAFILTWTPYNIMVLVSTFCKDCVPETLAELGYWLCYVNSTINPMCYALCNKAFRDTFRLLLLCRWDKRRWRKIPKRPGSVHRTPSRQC
Procedure: (§1) The IP-One assay kit (Cisbio) was used for the direct quantitative measurement of myo-Inositol 1 phosphate (IP1). Cells were seeded at 25,000 per well into 96-well transparent cell culture plates and incubated overnight at 37 °C. […] Cells were then lysed with IP1 lysis buffer (50 mM HEPES pH 7.0, 15 mM KF, 1.5% V/V Triton-X-100, 3% V/V FBS, 0.2% W/V BSA), and IP1 levels were measured by incubation of cell lysates with FRET reagents (the cryptate-labeled anti-IP1 antibody and the d2-labeled IP1 analogue) for 1 h at 37 °C. […] Signals were expressed as the FRET ratio: F = (fluorescence665 nm/fluorescence590 nm) × 10^4, and normalized to the response to maximal ACh concentration (100 µM).
(§2) (Eq. (2)) was used:(2) Y=Basal+Em-Basal/1+KA+A/τA where Em is the maximal possible system response and Basal is the response in the absence of agonist. [A] denotes the concentration of ligand, and KA represents its equilibrium dissociation constants. τ denotes the intrinsic efficacy of the ligand, which incorporates the total receptor density and the efficiency of stimulus-response coupling.
(§3) Functional interaction studies between orthosteric agonists and allosteric modulators in IP1 assays were analysed using the following operational model of allosterism and agonism (Eq. (3)):(3) E=Basal+Em-BasalAKB+αβB+τBBEC50/EC50KB+B+AKB+αβB+τBBEC50 where Em is the maximal possible system response, and Basal is the response in the absence of agonist. KB is the equilibrium dissociation constant of allosteric ligand, and EC50 is the concentration of orthosteric agonist required to achieve half maximal response. [A] and [B] denote concentrations of orthosteric and allosteric ligands, respectively. α and β denote allosteric effects on orthosteric ligand binding affinity and efficacy, respectively, and τB denotes the efficacy of allosteric ligand. This model assumes that ACh is a full agonist at the receptor in both the absence/presence of modulator and/or there is no efficacy modulation (i.e., β = 1).

Y179^ECL2A M1 mAChR = biological target: T2, Y179^ECL2A M1 mAChR (Homo sapiens, UniProt P11229, Y179A); assay: IP-One (IP1) accumulation assay, FlpIn CHO cells
T2 construct: expressed in transfected cells
T2 sequence (P11229 1-460 Y179A): T1 sequence (P11229 1-460 W400A) with Y179A, A400W
Procedure: as §1, §2, §3

WT M1 mAChR = biological target: T3, WT M1 mAChR (Homo sapiens, UniProt P11229); assay: Receptor alkylation assay: IP1 accumulation after PBZ pre-treatment, CHO-hM1 cells; settings: for Effect on maximal ACh response (potency of ACh increased): 10 µM PBZ pre-treatment, ACh a partial agonist; for αβ (functional cooperativity with ACh, antilog in brackets) / Logαβ (logarithm of functional cooperativity between ACh and modulator): alkylated with PBZ (10 µM pre-treatment); for Logαβ (logarithm of functional cooperativity between ACh and modulator): β constrained to 1
T3 construct: expressed in transfected cells
T3 sequence (P11229 1-460): T1 sequence (P11229 1-460 W400A) with A400W
Procedure: as §1
Cells were pre-treated with vehicle or the irreversible orthosteric alkylating agent, phenoxybenzamine (PBZ) for 30 min at 37 °C, 5% CO2 to reduce functional receptor availability, followed by three extensive washes with PBS. IP1 accumulation assays were then performed as described above.
as §3

SMILES | Modulation of ACh-stimulated IP1 accumulation (W400^7.35A M1 mAChR) | Modulation of ACh-stimulated IP1 accumulation (Y179^ECL2A M1 mAChR) | Effect on maximal ACh response (potency of ACh increased) (WT M1 mAChR) | αβ (functional cooperativity with ACh, antilog in brackets) (WT M1 mAChR) | Logαβ (logarithm of functional cooperativity between ACh and modulator) (WT M1 mAChR)
Cn1cc(-c2ccc(COc3ccccc3-c3cc(=O)n(C4CCCCC4O)cn3)cc2)cn1 (stereo not drawn) [MIPS1780, 3-(2-hydroxycyclohexyl)-6-(2-((4-(1-methyl-1H-pyrazol-4-yl)-benzyl)oxy)phenyl)pyrimidin-4(3H)-one] | abolished | abolished | no effect on the maximal agonist response | 117 | 2.07 ± 0.13
Cc1cnc(C(=O)N[C@H]2CCOC[C@@H]2O)cc1Cc1ccc(-c2cscn2)cc1 [PF-06767832, N-((3R,4S)-3-hydroxytetrahydro-2H-pyran-4-yl)-5-methyl-4-(4-(thiazol-4-yl)benzyl)pyridine-2-carboxamide] | abolished | abolished | no effect on the maximal agonist response | 144 | 2.16 ± 0.11
Cn1cc(-c2ccc(Cn3cc(C(=O)N[C@H]4CCCC[C@@H]4O)c4c(F)cc(F)cc43)cn2)cn1 [VU6004256, 4,6-difluoro-N-(1S,2S)-2-hydroxycyclohexyl-1-((6-(1-methyl-1H-pyrazol-4-yl)pyridine-3-yl)methyl)-1H-indole-3-carboxamide] | abolished | abolished | no effect on the maximal agonist response | 91 | 1.96 ± 0.22
